Among the data in patent publication US11685729B2, “C5a receptor modulators” (IDORSIA PHARMACEUTICALS LTD., priority 2018, dated 2023) are IC50 values, retold here.

pIC50: −log10 of the molar value.

Sequence of C5AR1 (P21730 whole entry): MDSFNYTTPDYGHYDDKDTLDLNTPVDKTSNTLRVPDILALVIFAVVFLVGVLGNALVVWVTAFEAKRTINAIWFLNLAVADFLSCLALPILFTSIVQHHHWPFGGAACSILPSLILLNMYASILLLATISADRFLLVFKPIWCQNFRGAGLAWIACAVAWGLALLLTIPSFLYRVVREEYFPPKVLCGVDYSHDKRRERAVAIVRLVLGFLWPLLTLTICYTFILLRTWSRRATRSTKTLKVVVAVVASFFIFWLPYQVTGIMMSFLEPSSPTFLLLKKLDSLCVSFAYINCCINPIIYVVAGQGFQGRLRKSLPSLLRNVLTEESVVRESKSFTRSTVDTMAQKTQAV

One assay concerns the target C5AR1 (Homo sapiens (Human), UniProt P21730). Nature of the assay: In vitro assay: PathHunter beta-arrestin antagonist assay in CHO-K1 C5AR1 beta-arrestin cell line, stimulated with C5a agonist.
Details: not given
`Cc1cccc(F)c1N1CCC(N2C(=O)N(Cc3ccccc3C(F)(F)F)c3ccccc3C2C)CC1` (single isomer, unassigned) [Example 71, (S)- or (R)-3-[1-(2-Fluoro-6-methyl-phenyl)-piperidin-4-yl]-4-methyl-1-(2-trifluoromethyl-benzyl)-3,4-dihydro-1H-quinazolin-2-one] gave a negative logarithm of the IC50 (pIC50) of 7.23.

The same assay, now with this note: read-out: C5aR IC50; CHO-K1 C5AR1 beta-arrestin cell line; 1-10 nM C5a agonist; geometric mean values.
As to `COc1cccc(C)c1N1CCC(N2Cc3cccc(OC)c3N(Cc3ccccc3C(F)(F)F)C2=O)CC1` [Example 25, 8-Methoxy-3-[1-(2-methoxy-6-methyl-phenyl)-piperidin-4-yl]-1-(2-trifluoromethyl-benzyl)-3,4-dihydro-1H-quinazolin-2-one], the negative logarithm of the IC50 (pIC50) is 6.30.

Regarding `Cc1nn(C)c(N2CCC(N3Cc4ccccc4N(Cc4ccccc4C(F)(F)F)C3=O)CC2)c1Cl` [Example 73, 3-[1-(4-Chloro-2,5-dimethyl-2H-pyrazol-3-yl)-piperidin-4-yl]-1-(2-trifluoromethyl-benzyl)-3,4-dihydro-1H-quinazolin-2-one], the pIC50 was 5.87.

As to `COc1cccc2c1N(Cc1ccccc1C(F)(F)F)C(=O)N([C@@H]1CCN(c3c(C)cccc3C)C1)C2` [Example 9, 3-[(R)-1-(2,6-Dimethyl-phenyl)-pyrrolidin-3-yl]-8-methoxy-1-(2-trifluoromethyl-benzyl)-3,4-dihydro-1H-quinazolin-2-one], the pIC50 is 7.60.

For the molecule `Cc1ccnc(F)c1N1CC[C@@H](N2Cc3ccccc3N(Cc3ccccc3C(F)(F)F)C2=O)C1` [Example 33, 3-[(R)-1-(2-Fluoro-4-methyl-pyridin-3-yl)-pyrrolidin-3-yl]-1-(2-trifluoromethyl-benzyl)-3,4-dihydro-1H-quinazolin-2-one], the pIC50 is 7.37.

For `COc1cccc(F)c1N1CC[C@@H](N2Cc3ccccc3N(Cc3ccccc3C(F)(F)F)C2=O)C1` [Example 21, 3-[(R)-1-(2-Fluoro-6-methoxy-phenyl)-pyrrolidin-3-yl]-1-(2-trifluoromethyl-benzyl)-3,4-dihydro-1H-quinazolin-2-one], the negative-log IC50 (pIC50) was 7.43.

For `COc1cccc(F)c1N1CCC(N2Cc3cccc(OC)c3N(Cc3ccccc3C(F)(F)F)C2=O)CC1` [Example 5, 3-[1-(2-Fluoro-6-methoxy-phenyl)-piperidin-4-yl]-8-methoxy-1-(2-trifluoromethyl-benzyl)-3,4-dihydro-1H-quinazolin-2-one], the pIC50 is 6.52.

As for `Cn1nc(C2CC2)c(Cl)c1N1CCC(N2Cc3ccccc3N(Cc3ccccc3C(F)(F)F)C2=O)CC1` [Example 12, 3-[1-(4-Chloro-5-cyclopropyl-2-methyl-2H-pyrazol-3-yl)-piperidin-4-yl]-1-(2-trifluoromethyl-benzyl)-3,4-dihydro-1H-quinazolin-2-one], the pIC50 was 6.17.

Take `COc1ccccc1N1CC[C@@H](N2Cc3ccccc3N(Cc3ccccc3C(F)(F)F)C2=O)C1` [Example 20, 3-[(R)-1-(2-Methoxy-phenyl)-pyrrolidin-3-yl]-1-(2-trifluoromethyl-benzyl)-3,4-dihydro-1H-quinazolin-2-one]: the negative logarithm of the IC50 (pIC50) is 6.74.

Consider `COc1ccccc1CN1C(=O)N([C@@H]2CCN(c3c(C)cccc3F)C2)Cc2ccccc21` [Example 35, 3-[(R)-1-(2-Fluoro-6-methyl-phenyl)-pyrrolidin-3-yl]-1-(2-methoxy-benzyl)-3,4-dihydro-1H-quinazolin-2-one], for which the pIC50 is 7.37.

Take `Cc1cccc(F)c1N1CCCC(N2Cc3ccccc3N(Cc3ccccc3C(F)(F)F)C2=O)CC1` (stereo not drawn) [Example 77, 3-[1-(2-Fluoro-6-methyl-phenyl)-azepan-4-yl]-1-(2-trifluoromethyl-benzyl)-3,4-dihydro-1H-quinazolin-2-one]: the negative-log IC50 (pIC50) was 6.76.

In the case of `COc1nccc(C)c1N1CC[C@@H](N2Cc3ccccc3N(Cc3ccccc3C(F)(F)F)C2=O)C1` [Example 31, 3-[(R)-1-(2-Methoxy-4-methyl-pyridin-3-yl)-pyrrolidin-3-yl]-1-(2-trifluoromethyl-benzyl)-3,4-dihydro-1H-quinazolin-2-one], the negative-log IC50 (pIC50) is 7.43.

As for `Cc1cccc(F)c1N1CCC(N2Cc3ccccc3N(Cc3ccccc3C3CC3)C2=O)CC1` [Example 56, 1-(2-Cyclopropyl-benzyl)-3-[1-(2-fluoro-6-methyl-phenyl)-piperidin-4-yl]-3,4-dihydro-1H-quinazolin-2-one], the negative logarithm of the IC50 (pIC50) is 7.55.

Take `Cc1cccc(F)c1N1CC[C@@H](N2Cc3ccccc3N(Cc3ccccc3C(F)(F)F)C2=O)C1` [Example 26, 3-[(R)-1-(2-Fluoro-6-methyl-phenyl)-pyrrolidin-3-yl]-1-(2-trifluoromethyl-benzyl)-3,4-dihydro-1H-quinazolin-2-one]: the pIC50 is 7.46.

Consider `Cc1cccc(F)c1N1CCC(N2Cc3ccccc3N(Cc3ccccc3C(C)C)C2=O)CC1` [Example 57, 3-[1-(2-Fluoro-6-methyl-phenyl)-piperidin-4-yl]-1-(2-isopropyl-benzyl)-3,4-dihydro-1H-quinazolin-2-one], for which the pIC50 is 7.62.
